Source: patent US12540131B2 (Merck Sharp & Dohme LLC, priority 2019, dated 2026)

Molecular target: GST tagged truncated human mutant G2019S LRRK2 (Homo sapiens (Human), UniProt Q5S007, G2019S)
Assay: LRRK2 Km ATP LanthaScreen Assay
Assay type: biochemical
Settings: G2019S LRRK2, 134 μM ATP (Km ATP), mean values
Summary of the method: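 Enzyme (GST-tagged, truncated) was preincubated with compound for 15 min at RT in 50 mM Tris pH 8.5, 10 mM MgCl2, 0.01% Brij-35, 1 mM EGTA, 2 mM DTT and 0.05 mM orthovanadate. Fluorescein-LRRKtide and 134 μM ATP (Km) were then added for 90 min. EDTA and Tb-anti-pERM antibody stopped the reaction; the TR-FRET 520/495 ratio gave 4-parameter IC50s, reported as mean pIC50.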

GST tagged truncated human mutant G2019S LRRK2, sequence (Q5S007 970-2527 G2019S): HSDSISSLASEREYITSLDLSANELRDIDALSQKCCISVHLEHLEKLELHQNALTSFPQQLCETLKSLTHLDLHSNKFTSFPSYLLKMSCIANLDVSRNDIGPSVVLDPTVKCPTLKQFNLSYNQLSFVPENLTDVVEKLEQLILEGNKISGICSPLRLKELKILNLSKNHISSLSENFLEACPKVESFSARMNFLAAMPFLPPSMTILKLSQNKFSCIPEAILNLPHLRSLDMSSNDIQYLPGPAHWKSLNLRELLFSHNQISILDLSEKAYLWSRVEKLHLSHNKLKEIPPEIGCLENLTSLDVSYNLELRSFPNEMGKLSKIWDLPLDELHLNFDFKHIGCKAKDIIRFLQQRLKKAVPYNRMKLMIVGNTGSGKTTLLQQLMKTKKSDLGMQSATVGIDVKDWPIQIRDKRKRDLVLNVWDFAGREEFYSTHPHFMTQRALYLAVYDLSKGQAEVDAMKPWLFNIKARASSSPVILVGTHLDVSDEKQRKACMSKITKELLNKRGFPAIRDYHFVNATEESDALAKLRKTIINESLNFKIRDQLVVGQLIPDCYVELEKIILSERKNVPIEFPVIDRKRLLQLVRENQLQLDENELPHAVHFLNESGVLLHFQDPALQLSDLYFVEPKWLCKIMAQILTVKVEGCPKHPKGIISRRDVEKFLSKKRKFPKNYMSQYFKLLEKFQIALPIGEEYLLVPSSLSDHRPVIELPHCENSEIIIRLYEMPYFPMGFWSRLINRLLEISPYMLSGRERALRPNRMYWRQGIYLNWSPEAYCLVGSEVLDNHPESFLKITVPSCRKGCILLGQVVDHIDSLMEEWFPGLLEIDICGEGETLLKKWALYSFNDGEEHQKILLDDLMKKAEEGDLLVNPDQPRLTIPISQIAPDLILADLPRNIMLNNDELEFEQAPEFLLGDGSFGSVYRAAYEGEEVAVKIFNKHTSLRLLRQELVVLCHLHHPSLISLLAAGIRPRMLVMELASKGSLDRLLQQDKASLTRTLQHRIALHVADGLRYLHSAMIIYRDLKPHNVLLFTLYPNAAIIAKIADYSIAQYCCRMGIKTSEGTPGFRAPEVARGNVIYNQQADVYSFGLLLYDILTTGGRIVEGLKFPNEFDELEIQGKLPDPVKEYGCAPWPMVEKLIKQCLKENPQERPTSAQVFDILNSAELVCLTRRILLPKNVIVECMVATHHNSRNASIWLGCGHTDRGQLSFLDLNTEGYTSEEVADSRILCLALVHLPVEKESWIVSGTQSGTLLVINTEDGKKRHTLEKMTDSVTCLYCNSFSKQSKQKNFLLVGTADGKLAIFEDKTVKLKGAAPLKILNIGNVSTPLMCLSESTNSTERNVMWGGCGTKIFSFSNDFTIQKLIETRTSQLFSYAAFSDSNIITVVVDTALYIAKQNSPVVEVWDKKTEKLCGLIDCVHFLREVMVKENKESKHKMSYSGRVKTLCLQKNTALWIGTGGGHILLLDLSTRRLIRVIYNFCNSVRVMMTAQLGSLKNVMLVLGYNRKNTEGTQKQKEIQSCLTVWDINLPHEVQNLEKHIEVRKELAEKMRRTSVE

SMILES	LRRK2 pIC50	IC50 (read-out: LRRK2 pIC50 (converted)) [nM]
Cc1cc2cnc(Nc3cnn(C)c3Cl)nc2cc1[C@@H]1CCN([C@@H]2COC[C@@H]2O)C[C@H]1F (single isomer, unassigned) [Ex-4.259, (3S,4S)(3S,4S) or (3S,4S)(3R,4R) or (3R,4R)(3S,4S) or (3R,4R)(3R,4R) 4-(4-(2-((5-chloro-1-methyl-1H-pyrazol-4-yl)amino)-6-methylquinazolin-7-yl)-3-fluoropiperidin-1-yl)tetrahydrofuran-3-ol]	>9.20	
Cc1cc2cnc(Nc3cnn(C)c3Cl)nc2cc1[C@@H]1CCN([C@H]2COC[C@H]2O)C[C@H]1F (single isomer, unassigned) [Ex-4.260, (3S,4S)(3S,4S) or (3S,4S)(3R,4R) or (3R,4R)(3S,4S) or (3R,4R)(3R,4R) 4-(4-(2-((5-chloro-1-methyl-1H-pyrazol-4-yl)amino)-6-methylquinazolin-7-yl)-3-fluoropiperidin-1-yl)tetrahydrofuran-3-ol]	8.00	
CO[C@H]1COC[C@H]1N1CC[C@@H](c2cc3nc(Nc4cnn(C5CC5)c4Cl)ncc3cc2C)[C@H](F)C1 (single isomer, unassigned) [Ex-4.261, (3S,4S)(3S,4S) or (3S,4S)(3R,4R) or (3R,4R)(3S,4S) or (3R,4R)(3R,4R) N-(5-chloro-1-cyclopropyl-1H-pyrazol-4-yl)-7-[3-fluoro-1-(4-methoxyoxolan-3-yl)piperidin-4-yl]-6-methylquinazolin-2-amine]	7.51	
COC12CC(n3ncc(Nc4ncc5cc(Cl)c([C@@H]6CCN([C@@H]7COC[C@@H]7O)C[C@H]6F)cc5n4)c3Cl)(C1)C2 (single isomer, unassigned) [Ex-4.262, (3S,4S)(3S,4S) or (3S,4S)(3R,4R) or (3R,4R)(3S,4S) or (3R,4R)(3R,4R) 4-(4-(6-chloro-2-((5-chloro-1-(3-methoxybicyclo[1.1.1]pentan-1-yl)-1H-pyrazol-4-yl)amino)quinazolin-7-yl)-3-fluoropiperidin-1-yl)tetrahydrofuran-3-ol]	9.19	
Cc1cc2cnc(Nc3cnn(C4CC4)c3C)nc2cc1[C@@H]1CCN(C2COC2)C[C@H]1F (single isomer, unassigned) [Ex-5.3, (3S,4S) or (3R,4R) N-(1-cyclopropyl-5-methyl-1H-pyrazol-4-yl)-7-[3-fluoro-1-(oxetan-3-yl)piperidin-4-yl]-6-methylquinazolin-2-amine]	8.96	
Cc1cc2cnc(Nc3cnn(C4CC4)c3C)nc2cc1[C@H]1CCN(C2COC2)C[C@@H]1F (single isomer, unassigned) [Ex-5.4, (3S,4S) or (3R,4R) N-(1-cyclopropyl-5-methyl-1H-pyrazol-4-yl)-7-[3-fluoro-1-(oxetan-3-yl)piperidin-4-yl]-6-methylquinazolin-2-amine]	8.75	
Cc1cc2cnc(Nc3cnn(CC(C)(C)O)c3C)nc2cc1[C@@H]1CCN(C2COC2)C[C@H]1F (single isomer, unassigned) [Ex-5.5, (3S,4S) or (3R,4R) 1-[4-({7-[3-fluoro-1-(oxetan-3-yl)piperidin-4-yl]-6-methylquinazolin-2-yl}amino)-5-methyl-1H-pyrazol-1-yl]-2-methylpropan-2-ol]	8.37	
Cc1cc2cnc(Nc3cnn(CC(C)(C)O)c3C)nc2cc1[C@H]1CCN(C2COC2)C[C@@H]1F (single isomer, unassigned) [Ex-5.6, (3S,4S) or (3R,4R) 1-[4-({7-[3-fluoro-1-(oxetan-3-yl)piperidin-4-yl]-6-methylquinazolin-2-yl}amino)-5-methyl-1H-pyrazol-1-yl]-2-methylpropan-2-ol]	8.68	
Cc1cc2cnc(Nc3cnn(C4CC4)c3C)nc2cc1C1CCN([C@@H]2COC[C@@H]2O)CC1 (single isomer, unassigned) [Ex-5.7, (3S,4S) or (3R,4R) 4-(4-{2-[(1-cyclopropyl-5-methyl-1H-pyrazol-4-yl)amino]-6-methylquinazolin-7-yl}piperidin-1-yl)oxolan-3-ol]	>9.20	
Cc1cc(Nc2ncc3cc(C)c([C@@H]4CCN([C@@H]5COC[C@@H]5O)C[C@H]4F)cc3n2)n(C)n1 (single isomer, unassigned) [Ex-5.9, (3S,4S)(3S,4S) or (3S,4S)(3R,4R) or (3R,4R)(3S,4S) or (3R,4R)(3R,4R) 4-(4-{2-[(1,3-dimethyl-1H-pyrazol-5-yl)amino]-6-methylquinazolin-7-yl}-3-fluoropiperidin-1-yl)oxolan-3-ol]	8.49	
Cc1cc(Nc2ncc3cc(C)c([C@@H]4CCN([C@H]5COC[C@H]5O)C[C@H]4F)cc3n2)n(C)n1 (single isomer, unassigned) [Ex-5.10, (3S,4S)(3S,4S) or (3S,4S)(3R,4R) or (3R,4R)(3S,4S) or (3R,4R)(3R,4R) 4-(4-{2-[(1,3-dimethyl-1H-pyrazol-5-yl)amino]-6-methylquinazolin-7-yl}-3-fluoropiperidin-1-yl)oxolan-3-ol]	6.66	
Cc1cc(Nc2ncc3cc(C)c([C@H]4CCN([C@@H]5COC[C@@H]5O)C[C@@H]4F)cc3n2)n(C)n1 (single isomer, unassigned) [Ex-5.11, (3S,4S)(3S,4S) or (3S,4S)(3R,4R) or (3R,4R)(3S,4S) or (3R,4R)(3R,4R) 4-(4-{2-[(1,3-dimethyl-1H-pyrazol-5-yl)amino]-6-methylquinazolin-7-yl}-3-fluoropiperidin-1-yl)oxolan-3-ol]	8.57	
Cc1cc(Nc2ncc3cc(C)c([C@H]4CCN([C@H]5COC[C@H]5O)C[C@@H]4F)cc3n2)n(C)n1 (single isomer, unassigned) [Ex-5.12, (3S,4S)(3S,4S) or (3S,4S)(3R,4R) or (3R,4R)(3S,4S) or (3R,4R)(3R,4R) 4-(4-{2-[(1,3-dimethyl-1H-pyrazol-5-yl)amino]-6-methylquinazolin-7-yl}-3-fluoropiperidin-1-yl)oxolan-3-ol]	6.03	
Cc1cc(Nc2ncc3cc(C)c(C4CCN([C@]5(C)COC[C@@H]5O)CC4)cc3n2)n(C)n1 (single isomer, unassigned) [Ex-5.13, (3S,4S)(3S,4S) or (3S,4S)(3R,4R) or (3R,4R)(3S,4S) or (3R,4R)(3R,4R) 4-(4-{2-[(1,3-dimethyl-1H-pyrazol-5-yl)amino]-6-methylquinazolin-7-yl}piperidin-1-yl)-4-methyloxolan-3-ol]	9.00	
Cc1cc2cnc(Nc3cc(C(C)(C)C)nn3C)nc2cc1C1CCN([C@]2(C)COC[C@@H]2O)CC1 (single isomer, unassigned) [Ex-5.14, (3S,4S) or (3R,4R) 4-(4-{2-[(3-tert-butyl-1-methyl-1H-pyrazol-5-yl)amino]-6-methylquinazolin-7-yl}piperidin-1-yl)-4-methyloxolan-3-ol]	9.02	
Cc1cc2cnc(Nc3cc(C(F)(F)F)nn3C)nc2cc1C1CCN([C@]2(C)COC[C@@H]2O)CC1 (single isomer, unassigned) [Ex-5.15, (3S,4S) or (3R,4R) 4-methyl-4-[4-(6-methyl-2-{[1-methyl-3-(trifluoromethyl)-1H-pyrazol-5-yl]amino}quinazolin-7-yl)piperidin-1-yl]oxolan-3-ol]	8.42	
Cc1cc2cnc(Nc3cnn(C)c3C(F)(F)F)nc2cc1C1CCN([C@]2(C)COC[C@@H]2O)CC1 (single isomer, unassigned) [Ex-5.16, (3S,4S) or (3R,4R) 4-methyl-4-(4-(6-methyl-2-((1-methyl-5-(trifluoromethyl)-1H-pyrazol-4-yl)amino)quinazolin-7-yl)piperidin-1-yl)tetrahydrofuran-3-ol]	>9.20	
N#Cc1cc2cnc(Nc3cnn(C4CC4)c3Cl)nc2cc1[C@H]1CCN(C2COC2)C[C@@H]1F (single isomer, unassigned) [Ex-6.1, (3R,4R) or (3S,4S) 2-((5-chloro-1-cyclopropyl-1H-pyrazol-4-yl)amino)-7-(3-fluoro-1-(oxetan-3-yl)piperidin-4-yl)quinazoline-6-carbonitrile]		1.91
N#Cc1cc2cnc(Nc3cnn(C4CC4)c3Cl)nc2cc1[C@H]1CCN(C2COC2)C[C@@H]1F (single isomer, unassigned) [Ex-6.2, (3R,4R) or (3S,4S) 2-((5-chloro-1-cyclopropyl-1H-pyrazol-4-yl)amino)-7-(3-fluoro-1-(oxetan-3-yl)piperidin-4-yl)quinazoline-6-carbonitrile]	>9.20	
N#Cc1cc2cnc(Nc3cnn(C4CC4(F)F)c3Cl)nc2cc1[C@@H]1CCN(C2COC2)C[C@H]1F (single isomer, unassigned) [Ex-6.4, (R)(3S,4S) or (S)(3S,4S) or (R)(3R,4R) or (S)(3R,4R) 2-((5-chloro-1-(2,2-difluorocyclopropyl)-1H-pyrazol-4-yl)amino)-7-(3-fluoro-1-(oxetan-3-yl)piperidin-4-yl)quinazoline-6-carbonitrile]	9.18	
N#Cc1cc2cnc(Nc3cnn(C4CC4(F)F)c3Cl)nc2cc1[C@@H]1CCN(C2COC2)C[C@H]1F (single isomer, unassigned) [Ex-6.5, (R)(3S,4S) or (S)(3S,4S) or (R)(3R,4R) or (S)(3R,4R) 2-((5-chloro-1-(2,2-difluorocyclopropyl)-1H-pyrazol-4-yl)amino)-7-(3-fluoro-1-(oxetan-3-yl)piperidin-4-yl)quinazoline-6-carbonitrile]	>9.20	
N#Cc1cc2cnc(Nc3cnn(C4CC4(F)F)c3Cl)nc2cc1[C@H]1CCN(C2COC2)C[C@@H]1F (single isomer, unassigned) [Ex-6.6, (R)(3S,4S) or (S)(3S,4S) or (R)(3R,4R) or (S)(3R,4R) 2-((5-chloro-1-(2,2-difluorocyclopropyl)-1H-pyrazol-4-yl)amino)-7-(3-fluoro-1-(oxetan-3-yl)piperidin-4-yl)quinazoline-6-carbonitrile]	8.94	
